Legend:
[1] = Ex vivo biodistribution in Balb/C mice with absorbed doses extrapolated to adult human male (OLINDA/EXM); conditions: mouse
Procedure: For ex vivo biodistribution and dosimetry evaluation, each BALB/C mouse was injected with 1.85 MBq of ^68Ga-NEB. At different time points after tracer injection (5 min, 30 min, 1 h, 3 h and 6 h, n=5/time point), the mice were sacrificed for tissue and organ collection, including blood, muscle, bone, liver, kidneys, spleen, pancreas, stomach, intestine, heart and lung. The samples were wet weighed, and measured for radioactivity in a γ-counter (Wallac 1470-002, Perkin-Elmer). The results were presented as percentage injected dose per gram of tissue (% ID/g). For each mouse, the radioactivity of the tissue samples was calibrated against a known aliquot of the injected tracer and normalized to a mean body mass of each group. Values were expressed as mean±SD (n=5/group). Determination of organ doses for a reference human was made using the OLINDA/EXM program (Vanderbilt University, Nashville, Tenn.).
In order to estimate the safe dose for clinical use, an ex vivo biodistribution study was performed in normal Balb/C mice. Absorbed doses for major organs and whole body were then extrapolated to adult human male of a body weight of 73.7 Kg using OLINDA EXM software. The kidneys received the highest absorbed doses (mean absorbed dose, 0.104˜0.135 mSv/MBq), resulting from abundant blood supply and tracer excretion through the renal urinary tract. The mean effective dose of ^68Ga-NEB was 0.0151 to 0.0159 mSv/MBq. With an injected dose of 185 MBq (5 mCi), the patient would be exposed to an effective radiation dose of 2.94 mSv, which is much lower than the dose limit of 20 mSv for the second risk category defined by the 2007 International Commission on Radiological Protection.

[2] = Multiple time point whole-body PET in healthy volunteers (SUV); format: in vivo, human
Procedure: (§1) This clinical study was approved by the Institute Review Board of Peking Union Medical College Hospital, Chinese Academy of Medical Sciences and Peking Union Medical College. Three healthy volunteers (2 males and 1 female) were enrolled with written informed consent to validate the safety of ^68Ga-NEB. No fasting, hydration or other specific preparation was requested on the day of imaging. Any unusual or adverse clinical symptoms were recorded on the day of imaging and during the 2-week follow-up period.
All three healthy volunteers underwent whole-body PET acquisitions (Biograph mCT PET/CT system, Siemens) at multiple time points after tracer injection. After the whole-body low-dose CT scan (140 kV, 35 mA, pitch 1:1, layer 5 mm, layer spacing 3 mm, matrix 512×512, FOV 70 cm), 111-148 MBq (3-4 mCi) of ^68Ga-NEB was injected intravenously. The whole body (from the top of skull to the middle of femur) of each volunteer was covered by 7 bed positions. The acquisition duration was 40 sec/bed position for the 5 min, 10 min and 15 min time points, 2 min/bed position for the 30 min, 45 min, 60 min, 75 min and 90 min time points.
(§2) A Siemens MMWP workstation was used for post-processing. Visual analysis was used to determine the general biodistribution and the temporal and inter-subject stability. The volume of interest (VOI) of 12 normal organs/tissues and concerned lesions were drawn on the serial images. The radioactivity concentration and standardized uptake value (SUV) in the VOIs were obtained through the software. Organ dosimetry was calculated by using organ-level internal dose assessment software. All quantitative data were expressed as mean±standard deviation.
From 5 to 90 min, no dramatic distribution change was observed, confirming the in vivo stability and long blood pool retention of ^68Ga-NEB (FIG. 28). Increased bladder accumulation was observed over time.

[3] = human, in vivo
Source text: (§3) Dosimetry study confirmed the safety with acceptable absorbed doses by critical organs even with multiple injections for one patient.
as §2
The mean absorbed radiation doses based on multiple time point PET imaging of three volunteers were similar to those based on mouse biodistribution data. The major organs that received relatively high doses were kidneys, liver, spleen, and heart wall. The bladder wall also received high exposure due to renal excretion of the radioactivity (0.0683±0.0090 mSv/MBq). The whole body absorbed dose was 0.0151±0.0001 mSv/MBq with an effective dose of 0.0179±0.0003 mSv/MBq.

[4] = Safety observation in healthy volunteers and patients; format: in vivo, human
Source text: as §3, §1
Vessel branches in and out of major organs and limbs can also be clearly identified.

## Cc1cc(-c2ccc(NC(=O)CN3CCN4CCN(CC3)CC(=O)[O][68GaH][O]C(=O)C4)c(C)c2)ccc1N=Nc1ccc2c(S(=O)(=O)O)cc(S(=O)(=O)O)c(N)c2c1O [^68Ga-NEB]
[1]; BALB/c
  Absorbed Dose, Adrenals: 0.0137~0.0141 mSv/MBq
  Absorbed Dose, Breasts: 0.00881~0.01 mSv/MBq
  Absorbed Dose, Gallbladder Wall: 0.0147~0.0149 mSv/MBq
  Absorbed Dose, Heart Wall: 0.0329~0.0453 mSv/MBq
  Absorbed Dose, LLI Wall: 0.0104~0.0119 mSv/MBq
  Absorbed Dose, Liver: 0.0444~0.0575 mSv/MBq
  Absorbed Dose, Lungs: 0.0197~0.0236 mSv/MBq
  Absorbed Dose, Muscle: 0.00946~0.011 mSv/MBq
  Absorbed Dose, Osteogenic Cells: 0.0133~0.0153 mSv/MBq
  Absorbed Dose, Ovaries: 0.0108~0.0122 mSv/MBq
  Absorbed Dose, Pancreas: 0.0625~0.0821 mSv/MBq
  Absorbed Dose, Red Marrow: 0.00882~0.00973 mSv/MBq
  Absorbed Dose, Skin: 0.00804~0.00925 mSv/MBq
  Absorbed Dose, Small Intestine: 0.0114~0.0128 mSv/MBq
  Absorbed Dose, Spleen: 0.0263~0.0317 mSv/MBq
  Absorbed Dose, Stomach Wall: 0.0117~0.0127 mSv/MBq
  Absorbed Dose, Testes: 0.00896~0.0103 mSv/MBq
  Absorbed Dose, Thymus: 0.0101~0.0112 mSv/MBq
  Absorbed Dose, Thyroid: 0.00936~0.0107 mSv/MBq
  Absorbed Dose, Total Body: 0.0146~0.0146 mSv/MBq
  Absorbed Dose, ULI Wall: 0.0115~0.0128 mSv/MBq
  Absorbed Dose, Urinary Bladder Wall: 0.0102~0.0117 mSv/MBq
  Absorbed Dose, Uterus: 0.0108~0.0123 mSv/MBq
  Effective Dose Equivalent: 0.0251~0.0297 mSv/MBq
[1]
  effective radiation dose to the patient: 2.94 mSv
[2]; 5 min after i.v.
  average standardized uptake value, Blood: 7.97 ± 0.15
  average standardized uptake value, Bone: 2.10 ± 0.26
  average standardized uptake value, Kidneys: 4.40 ± 0.26
  average standardized uptake value, Liver: 3.80 ± 0.44
  average standardized uptake value, Lung: 1.53 ± 0.15
  average standardized uptake value, Muscle: 0.53 ± 0.21
  average standardized uptake value, Pancreas: 2.13 ± 0.40
  average standardized uptake value, S. Intestine: 1.73 ± 0.25
  average standardized uptake value, Spleen: 4.10 ± 0.36
  average standardized uptake value, Stomach: 1.23 ± 0.15
[2]; 10 min after i.v.
  average standardized uptake value, Blood: 7.53 ± 0.25
  average standardized uptake value, Bone: 1.93 ± 0.12
  average standardized uptake value, Kidneys: 4.23 ± 0.49
  average standardized uptake value, Liver: 3.70 ± 0.61
  average standardized uptake value, Lung: 1.47 ± 0.29
  average standardized uptake value, Muscle: 0.60 ± 0.10
  average standardized uptake value, Pancreas: 2.03 ± 0.15
  average standardized uptake value, S. Intestine: 1.57 ± 0.12
  average standardized uptake value, Spleen: 4.07 ± 0.47
  average standardized uptake value, Stomach: 1.50 ± 0.20
[2]; 15 min after i.v.
  average standardized uptake value, Blood: 7.17 ± 0.35
  average standardized uptake value, Bone: 1.83 ± 0.15
  average standardized uptake value, Kidneys: 4.03 ± 0.50
  average standardized uptake value, Liver: 3.73 ± 0.59
  average standardized uptake value, Lung: 1.4 ± 0.17
  average standardized uptake value, Muscle: 0.60 ± 0.17
  average standardized uptake value, Pancreas: 1.90 ± 0.26
  average standardized uptake value, S. Intestine: 1.73 ± 0.12
  average standardized uptake value, Spleen: 4.00 ± 0.52
  average standardized uptake value, Stomach: 1.23 ± 0.12
[2]; 30 min after i.v.
  average standardized uptake value, Blood: 6.93 ± 0.21
  average standardized uptake value, Bone: 1.67 ± 0.15
  average standardized uptake value, Kidneys: 3.77 ± 0.29
  average standardized uptake value, Liver: 3.57 ± 0.46
  average standardized uptake value, Lung: 1.30 ± 0.17
  average standardized uptake value, Muscle: 0.57 ± 0.12
  average standardized uptake value, Pancreas: 1.67 ± 0.15
  average standardized uptake value, S. Intestine: 1.63 ± 0.15
  average standardized uptake value, Spleen: 3.90 ± 0.61
  average standardized uptake value, Stomach: 1.23 ± 0.06
[2]; 45 min after i.v.
  average standardized uptake value, Blood: 6.70 ± 0.26
  average standardized uptake value, Bone: 1.50 ± 0.20
  average standardized uptake value, Kidneys: 3.87 ± 0.32
  average standardized uptake value, Liver: 3.50 ± 0.52
  average standardized uptake value, Lung: 1.30 ± 0.20
  average standardized uptake value, Muscle: 0.53 ± 0.06
  average standardized uptake value, Pancreas: 1.67 ± 0.15
  average standardized uptake value, S. Intestine: 1.63 ± 0.06
  average standardized uptake value, Spleen: 3.77 ± 0.57
  average standardized uptake value, Stomach: 1.23 ± 0.06
[2]; 60 min after i.v.
  average standardized uptake value, Blood: 6.20 ± 0.17
  average standardized uptake value, Bone: 1.37 ± 0.06
  average standardized uptake value, Kidneys: 3.60 ± 0.10
  average standardized uptake value, Liver: 3.47 ± 0.47
  average standardized uptake value, Lung: 1.23 ± 0.06
  average standardized uptake value, Muscle: 0.50 ± 0.00
  average standardized uptake value, Pancreas: 1.43 ± 0.15
  average standardized uptake value, S. Intestine: 1.47 ± 0.15
  average standardized uptake value, Spleen: 3.73 ± 0.42
  average standardized uptake value, Stomach: 1.10 ± 0.00
[2]; 75 min after i.v.
  average standardized uptake value, Blood: 6.03 ± 0.12
  average standardized uptake value, Bone: 1.27 ± 0.12
  average standardized uptake value, Kidneys: 3.43 ± 0.15
  average standardized uptake value, Liver: 3.43 ± 0.49
  average standardized uptake value, Lung: 1.10 ± 0.17
  average standardized uptake value, Muscle: 0.47 ± 0.06
  average standardized uptake value, Pancreas: 1.37 ± 0.21
  average standardized uptake value, S. Intestine: 1.33 ± 0.21
  average standardized uptake value, Spleen: 4.93 ± 2.10
  average standardized uptake value, Stomach: 1.07 ± 0.12
[2]; 90 min after i.v.
  average standardized uptake value, Blood: 5.97 ± 0.15
  average standardized uptake value, Bone: 1.23 ± 0.15
  average standardized uptake value, Kidneys: 3.30 ± 0.20
  average standardized uptake value, Liver: 3.33 ± 0.58
  average standardized uptake value, Lung: 1.07 ± 0.12
  average standardized uptake value, Muscle: 0.77 ± 0.64
  average standardized uptake value, Pancreas: 1.37 ± 0.31
  average standardized uptake value, S. Intestine: 1.17 ± 0.32
  average standardized uptake value, Spleen: 3.57 ± 0.55
  average standardized uptake value, Stomach: 1.03 ± 0.15
[2]; PET, normal brain tissue negligible accumulation
  crossing of the blood-brain barrier: does not cross the blood-brain barrier
[3]
  effective dose: 0.0179±0.0003 mSv/MBq
  mean absorbed radiation dose, bladder wall: 0.0683±0.0090 mSv/MBq
  radiation dose a patient would be exposed to: 2.65 mSv
  whole body absorbed dose: 0.0151±0.0001 mSv/MBq
[4]; all healthy volunteers and patients
  reported discomfort, adverse clinical events, toxicity, allergies: no discomfort or adverse clinical events, no elicited toxicity, and no allergies
[4]; healthy volunteers, mean injected dose 3.77±0.28 mCi
  adverse symptoms during the entire procedure and 2 weeks follow-up: no adverse symptoms were noticed and/or reported

Source: patent US10258701B2, “Labeled evans blue dye derivative for in vivo serum albumin labeling” (The United States of America, as represented by the …, priority 2015, dated 2019)
